A word on the IC50: it is the point on the concentration scale where inhibition reaches its midpoint.

The structures appear in SMILES notation. Where only a bound is given, the exact number is not on record here.

Chain of Complement factor D (P00746 whole entry): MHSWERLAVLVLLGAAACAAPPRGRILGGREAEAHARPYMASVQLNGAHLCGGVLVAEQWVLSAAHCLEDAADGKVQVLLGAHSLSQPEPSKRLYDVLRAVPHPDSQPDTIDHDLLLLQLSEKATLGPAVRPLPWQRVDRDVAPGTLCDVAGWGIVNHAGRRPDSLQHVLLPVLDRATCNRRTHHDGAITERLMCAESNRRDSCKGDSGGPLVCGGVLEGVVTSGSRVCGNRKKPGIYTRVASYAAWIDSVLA

This assay addresses Complement factor D (Homo sapiens, UniProt P00746). Nature of the assay: Human Factor D Assay: Human Factor D (purified from human serum, Complement Technology, Inc.) at 80 nM final concentration was incubated with test compound at various concentrations for 5 minutes at room temperature in 50 mM Tris, 1M NaCl, pH 7.5. A synthetic substrate Z-L-Lys-SBzl and DTNB (Ellman's reagent) are added to final concentrations of 100 μM each. […] IC50 values are calculated by nonlinear regression of complement Factor D reaction rates as a function of test compound concentration.
For the molecule `Cc1cc2ncc(-c3ccc4c(c3)c(C(N)=O)nn4CC(=O)N3C[C@H](F)C[C@H]3C(=O)Nc3cccc(OC(F)(F)F)c3F)cn2n1`, the IC50 is below 1000 nM. Regarding `CC(=O)c1nn(CC(=O)N2C[C@H](F)C[C@H]2C(=O)Nc2ccn(CCC(F)(F)F)n2)c2ccc(-c3cnc(C)nc3)cc12`, the IC50 was below 1000 nM. Regarding `CC(=O)c1nn(CC(=O)N2[C@H](C(=O)NCc3cccc(Cl)c3F)C[C@@]3(C)C[C@@H]23)c2ccc(-c3cnc(C)nc3)cc12`, the IC50 is below 1000 nM.

As for `CC(=O)c1nn(CC(=O)N2C[C@H](F)C[C@H]2C(=O)NC[C@@H]2CC2(Cl)Cl)c2ccc(-c3cnc(C)nc3)cc12`, the IC50 was below 1000 nM. With `CC(=O)c1nn(CC(=O)N2C[C@H](F)C[C@H]2C(=O)Nc2cccc(OC(F)(F)F)c2C#N)c2ccc(-c3cnc(C)nc3)cc12`, the IC50 is below 1000 nM. In the case of `CC(=O)c1nn(CC(=O)N2C[C@H](F)C[C@H]2C(=O)N[C@@H]2C[C@H]2c2ccccc2Cl)c2ccc(-c3cnc(C)nc3)cc12` it was below 1000 nM; in that of `CC(=O)c1nn(CC(=O)N2C[C@H](F)C[C@H]2C(=O)Nc2cccnn2)c2ccc(-c3cnc4cc(C)nn4c3)cc12`, below 1000 nM; in that of `CC(=O)c1nn(CC(=O)N2C[C@H](F)C[C@H]2C(=O)NC[C@H]2CC2(Cl)Cl)c2ccc(-c3cnc(C)nc3)cc12`, below 1000 nM. For the molecule `CC(=O)c1nn(CC(=O)N2[C@@H]3C[C@@H]3C[C@H]2C(=O)NC/C(F)=C(/C)c2ccccc2)c2ccc(-c3cnc(C)nc3)cc12`, the IC50 is below 1000 nM. In the case of `CC(=O)c1nn(CC(=O)N2C[C@H](F)C[C@H]2C(=O)Nc2cccc(Br)n2)c2ccc(-c3cnc([S+](C)[O-])nc3)cc12` (stereo partly specified) it was below 1000 nM; in that of `CC(=O)c1nn(CC(=O)N2C[C@H](F)C[C@H]2C(=O)Nc2nn(CC(F)(F)F)cc2C)c2ccc(-c3cnc(C)nc3)cc12`, below 1000 nM; in that of `CC(=O)c1nn(CC(=O)N2C[C@H](F)C[C@H]2C(=O)N[C@H](C)[C@H]2CC2(Cl)Cl)c2ccc(-c3cnc(C)nc3)cc12`, below 1000 nM. On to `CC(=O)c1nn(CC(=O)N2C[C@H](F)C[C@H]2C(=O)Nc2nc(Br)ccc2Cl)c2ccc(-c3cnc(C)nc3)cc12`, for which the IC50 is below 1000 nM. In the case of `CC(=O)c1nn(CC(=O)N2[C@H](C(=O)NCC3CC3(Cl)Cl)C[C@@]3(C)C[C@@H]23)c2ccc(-c3cnc(C)nc3)cc12` (stereo partly specified) it was below 1000 nM; in that of `CC(=O)c1nn(CC(=O)N2[C@@H]3C[C@@H]3C[C@H]2C(=O)Nc2cccc(Br)n2)c2ccc(-c3cnc(NC(C)C)nc3)cc12`, below 1000 nM; in that of `CC(=O)c1nn(CC(=O)N2C[C@H](F)C[C@H]2C(=O)Nc2cccc(C)n2)c2ccc(-c3cnc(C)nc3)cc12`, below 1000 nM.

With `CC(=O)c1nn(CC(=O)N2C[C@H](F)C[C@H]2C(=O)N[C@H]2C[C@@H]2c2ccccc2Cl)c2ccc(-c3cnc(C)nc3)cc12`, the IC50 was below 1000 nM. With `CC(=O)c1nn(CC(=O)N2C[C@H](F)C[C@H]2C(=O)Nc2cccc(OC(F)(F)F)n2)c2ccc(-c3cnc(N)nc3)cc12`, the IC50 was below 1000 nM. With `COc1ccc(Br)nc1NC(=O)[C@@H]1C[C@@H](F)CN1C(=O)Cn1nc(C(C)=O)c2cc(-c3cnc(C)nc3)ccc21`, the IC50 is below 1000 nM. As for `CC(=O)c1nn(CC(=O)N2[C@H](C(=O)NCc3cccc(Cl)c3)C[C@@]3(C)C[C@@H]23)c2ccc(-c3cnc(C)nc3)cc12`, the figure is below 1000 nM; as for `CC(=O)c1nn(CC(=O)N2[C@@H]3C[C@@H]3C[C@H]2C(=O)Nc2nc(Br)ccc2C)c2ccc(-c3cnc(C)nc3)cc12`, below 1000 nM; as for `COCCNc1ncc(-c2ccc3c(c2)c(C(C)=O)cn3CC(=O)N2C[C@H](F)C[C@H]2C(=O)Nc2cccc(Br)n2)cn1`, below 1000 nM. As for `CC(=O)c1nn(CC(=O)N2C[C@@](F)(CO)C[C@H]2C(=O)Nc2cccc(Br)n2)c2ccc(-c3cnc(C)nc3)cc12`, the figure is below 1000 nM; as for `CC(=O)c1cn(CC(=O)N2C[C@H](F)C[C@H]2C(=O)Nc2cccc(Br)n2)c2ccc(-c3cnc4ccnn4c3)cc12`, below 1000 nM; as for `CC(=O)c1nn(CC(=O)N2C[C@H](F)C[C@H]2C(=O)Nc2cccc(Br)n2)c2ccc(-c3nc4ccccc4[nH]3)cc12`, below 1000 nM.

With `CC(=O)c1nn(CC(=O)N2C[C@H](F)C[C@H]2C(=O)Nc2cccc(Br)n2)c2ccc(-c3cnnc(C)c3)cc12`, the IC50 was below 1000 nM. For the molecule `CC(=O)c1nn(CC(=O)N2C[C@H](F)C[C@H]2C(=O)Nc2cccc(Br)c2)c2ccc(-c3cnc(C)nc3)cc12`, the IC50 is below 1000 nM.

`CC(=O)c1nn(CC(=O)N2C[C@H](F)C[C@H]2C(=O)Nc2ccc(F)c(Br)c2F)c2ccc(-c3cnc(C)nc3)cc12`: the IC50 is below 1000 nM.

Regarding `CCn1ccc(NC(=O)[C@@H]2C[C@@H](F)CN2C(=O)Cn2nc(C(C)=O)c3cc(-c4cnc(C)nc4)ccc32)n1`, the IC50 was below 1000 nM. As for `COCCNc1ncc(-c2ccc3c(c2)c(C(C)=O)cn3CC(=O)N2[C@@H]3C[C@@H]3C[C@H]2C(=O)Nc2cccc(Br)n2)cn1`, the IC50 was below 1000 nM. On to `CCOC(=O)Cc1ncc(-c2ccc3c(c2)c(C(C)=O)nn3CC(=O)N2C[C@H](F)C[C@H]2C(=O)Nc2nc(Br)ccc2C)cn1`, for which the IC50 is below 1000 nM.

The values above are taken from ChEMBL document CHEMBL5726928, “Aryl, heteroaryl, and heterocyclic compounds for treatment of medical disorders” (2019).
